Source: PMC7268545, “Development of a QPatch-Automated Electrophysiology Assay for Identifying TMEM16A Small-Molecule Inhibitors” (Assay and Drug Development Technologies, 2020)

Tests used:
abc isoform of TMEM16A = target: T1, abc isoform of TMEM16A (Homo sapiens, UniProt Q5XXA6, DEL476-501); assay: QPatch-48 assay on HEK293T cell line stably expressing the abc isoform; assay type: cell-based; conditions: 30 μM
T1 construct: expressed in transfected cells; host or cells: HEK293T
T1 sequence (Q5XXA6 with tags, fused parts or gaps isoform Q5XXA6-5 DEL539-564): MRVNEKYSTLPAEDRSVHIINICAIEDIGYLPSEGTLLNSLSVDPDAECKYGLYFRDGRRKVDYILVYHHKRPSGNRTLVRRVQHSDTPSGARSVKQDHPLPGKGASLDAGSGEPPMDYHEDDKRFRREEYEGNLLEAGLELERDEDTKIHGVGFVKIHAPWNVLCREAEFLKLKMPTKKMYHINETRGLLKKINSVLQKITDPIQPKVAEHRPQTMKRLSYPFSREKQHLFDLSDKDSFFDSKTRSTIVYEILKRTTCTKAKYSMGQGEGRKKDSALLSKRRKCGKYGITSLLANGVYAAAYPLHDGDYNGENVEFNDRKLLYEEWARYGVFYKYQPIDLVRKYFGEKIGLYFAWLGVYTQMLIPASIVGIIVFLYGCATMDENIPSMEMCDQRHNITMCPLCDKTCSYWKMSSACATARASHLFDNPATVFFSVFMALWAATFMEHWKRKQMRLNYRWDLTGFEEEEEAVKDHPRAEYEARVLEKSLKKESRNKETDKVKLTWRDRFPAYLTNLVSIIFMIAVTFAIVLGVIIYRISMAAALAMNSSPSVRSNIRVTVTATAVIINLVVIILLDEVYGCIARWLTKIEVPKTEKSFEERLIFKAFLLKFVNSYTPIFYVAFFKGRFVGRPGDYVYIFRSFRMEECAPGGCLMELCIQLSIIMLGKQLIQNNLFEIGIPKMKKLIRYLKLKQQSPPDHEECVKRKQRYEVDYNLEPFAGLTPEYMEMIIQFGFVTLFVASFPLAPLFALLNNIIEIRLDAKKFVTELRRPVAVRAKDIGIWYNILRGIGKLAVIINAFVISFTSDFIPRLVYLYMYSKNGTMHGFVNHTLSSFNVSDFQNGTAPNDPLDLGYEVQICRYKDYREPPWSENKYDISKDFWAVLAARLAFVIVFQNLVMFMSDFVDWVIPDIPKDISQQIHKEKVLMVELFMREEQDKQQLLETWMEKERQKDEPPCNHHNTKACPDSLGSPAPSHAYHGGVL
Description: Using the QPatch-48, we have developed a robust assay for the assessment of TMEM16A small-molecule inhibitors. Many optimization steps were performed to determine the optimal cell culture conditions, internal calcium level, holding potential and voltage protocol, and maximum duration of the assay. It was necessary to control for the culture conditions of the cells and strictly adhere to the cell preparation procedure to obtain high-quality seals. In addition, while the external solution can be used throughout the day, the internal solution should be replaced every 2 h to ensure that the ATP is fresh. Best practices also require solutions to be made weekly and for the osmolarity and pH to be measured accurately. Having met these conditions, the assay results in large currents, averaging a peak current of 6 nA, while maintaining outward rectification that is characteristic of the TMEM16A channel. The benchmark TMEM16A inhibitors that were tested during the validation efforts generated reproducible and expected IC50 values. […] Another HEK293T cell line that stably expressed the abc isoform of TMEM16A also formed high-quality seals and produced large currents.

TMEM16A = target: T2, TMEM16A (Homo sapiens, UniProt Q5XXA6); assay: QPatch-48 assay on HEK293T-derived cell line with doxycycline-induced expression; assay type: cell-based; conditions: 30 μM; expression induced with 10 ng/mL doxycycline
T2 construct: expressed in transfected cells; host or cells: HEK293T-derived, doxycycline-inducible
T2 sequence (Q5XXA6 1-986): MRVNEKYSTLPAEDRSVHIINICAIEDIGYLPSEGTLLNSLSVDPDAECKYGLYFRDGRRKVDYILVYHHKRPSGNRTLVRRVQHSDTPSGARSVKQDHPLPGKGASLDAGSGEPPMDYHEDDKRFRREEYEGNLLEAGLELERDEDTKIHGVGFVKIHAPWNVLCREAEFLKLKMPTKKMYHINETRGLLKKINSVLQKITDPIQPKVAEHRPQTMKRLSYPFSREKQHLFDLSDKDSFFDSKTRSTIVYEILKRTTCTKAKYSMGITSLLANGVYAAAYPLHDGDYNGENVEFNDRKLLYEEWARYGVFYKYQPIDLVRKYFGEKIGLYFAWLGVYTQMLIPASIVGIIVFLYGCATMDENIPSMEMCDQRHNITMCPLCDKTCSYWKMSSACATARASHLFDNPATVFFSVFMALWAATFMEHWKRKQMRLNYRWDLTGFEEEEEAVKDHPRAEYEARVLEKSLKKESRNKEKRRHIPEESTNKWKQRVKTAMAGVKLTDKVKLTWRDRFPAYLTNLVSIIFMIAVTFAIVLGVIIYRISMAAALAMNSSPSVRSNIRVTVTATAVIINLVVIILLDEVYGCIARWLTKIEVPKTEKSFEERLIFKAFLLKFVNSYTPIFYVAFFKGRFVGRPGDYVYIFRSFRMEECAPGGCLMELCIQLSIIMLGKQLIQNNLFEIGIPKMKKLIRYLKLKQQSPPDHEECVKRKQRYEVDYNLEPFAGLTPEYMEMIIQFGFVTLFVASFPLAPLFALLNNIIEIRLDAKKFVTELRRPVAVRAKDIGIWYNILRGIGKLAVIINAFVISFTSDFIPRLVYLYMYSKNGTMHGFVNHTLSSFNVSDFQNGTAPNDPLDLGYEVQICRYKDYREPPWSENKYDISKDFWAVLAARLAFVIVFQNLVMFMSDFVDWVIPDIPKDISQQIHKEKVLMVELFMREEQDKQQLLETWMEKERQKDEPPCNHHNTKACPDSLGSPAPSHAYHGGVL
Description: In addition, another cell line that was HEK293T-derived and induced expression of TMEM16A on addition of 10 ng/mL of doxycycline also performed well on the assay. […] These two other cell lines were run on the machine using the predefined parameters that were optimized with the original cells, including the cell preparation protocol. Therefore, it seems that this assay is easily transferable to any cell line expressing TMEM16A.

In the case of `CCc1oc2ccccc2c1C(=O)c1cc(Br)c(O)c(Br)c1` [Benzbromarone], the block of currents (abc isoform of TMEM16A) is reported as “fully blocked” and the block of currents (TMEM16A) is reported as “fully blocked”.
